Key:
[1] = biological target: T1, COX-1 derived from ram seminal vesicles (Ovis aries, UniProt P05979); test: Inhibition of COX-1 (arachidonic acid incubation, PGE2 formation); conditions: 300 μM; PGE2 formation by spectrophotometric quantitation of malondialdehyde
T1 sequence (P05979 25-600): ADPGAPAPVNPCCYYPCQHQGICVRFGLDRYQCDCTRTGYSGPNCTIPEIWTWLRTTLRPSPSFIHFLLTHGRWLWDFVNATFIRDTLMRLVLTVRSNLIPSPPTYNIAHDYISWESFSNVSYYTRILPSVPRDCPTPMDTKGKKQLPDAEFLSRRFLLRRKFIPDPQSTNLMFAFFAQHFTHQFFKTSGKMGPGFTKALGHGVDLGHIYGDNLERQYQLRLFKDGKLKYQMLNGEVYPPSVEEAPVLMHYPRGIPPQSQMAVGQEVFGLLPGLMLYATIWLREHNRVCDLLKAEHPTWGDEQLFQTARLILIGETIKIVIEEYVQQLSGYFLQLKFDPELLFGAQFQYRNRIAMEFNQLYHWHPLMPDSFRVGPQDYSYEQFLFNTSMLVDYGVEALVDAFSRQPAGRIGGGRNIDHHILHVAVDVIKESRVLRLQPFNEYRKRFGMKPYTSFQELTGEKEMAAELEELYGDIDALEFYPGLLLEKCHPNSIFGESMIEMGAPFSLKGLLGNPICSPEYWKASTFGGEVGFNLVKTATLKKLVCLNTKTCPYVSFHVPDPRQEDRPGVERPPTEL
Method: (§1) The inhibition of COX-1 was measured by incubating arachidonic acid with COX-1 derived from ram seminal vesicles. The inhibition of COX-2 was measured by incubation of arachidonic acid with COX-2 derived from sheep placenta. […] In each assay, the formation of prostaglandin E2 (PGE2) was measured by spectrophotometric quantitation of malondialdehyde.

[2] = biological target: T2, COX-2 derived from sheep placenta (Ovis aries, UniProt P79208); test: Inhibition of COX-2 (arachidonic acid incubation, PGE2 formation); conditions: 300 μM; PGE2 formation by spectrophotometric quantitation of malondialdehyde
T2 sequence (P79208 17-603): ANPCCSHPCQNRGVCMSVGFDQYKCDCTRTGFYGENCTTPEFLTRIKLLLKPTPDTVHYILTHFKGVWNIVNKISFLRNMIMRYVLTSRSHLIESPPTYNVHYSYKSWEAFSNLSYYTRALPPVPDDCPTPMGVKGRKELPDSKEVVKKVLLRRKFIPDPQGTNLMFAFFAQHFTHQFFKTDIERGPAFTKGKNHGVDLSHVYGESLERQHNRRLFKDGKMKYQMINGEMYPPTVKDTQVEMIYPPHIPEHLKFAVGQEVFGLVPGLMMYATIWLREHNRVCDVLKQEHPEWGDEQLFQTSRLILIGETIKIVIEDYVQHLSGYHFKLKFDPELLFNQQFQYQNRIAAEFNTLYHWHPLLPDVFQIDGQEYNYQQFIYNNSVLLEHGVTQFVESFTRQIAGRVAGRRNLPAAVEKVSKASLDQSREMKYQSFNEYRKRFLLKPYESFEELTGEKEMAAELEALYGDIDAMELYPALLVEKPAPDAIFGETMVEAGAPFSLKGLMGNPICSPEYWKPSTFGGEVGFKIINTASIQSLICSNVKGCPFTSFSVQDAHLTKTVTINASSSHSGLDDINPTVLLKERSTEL
Method: as §1

[3] = test system: adjuvant-induced footpad edema in rats; test: Adjuvant assay (adjuvant-induced footpad edema); format: in vivo, rat; conditions: Male Lewis rats, 3 mg/kg po, dosing day 14 to day 21 post-adjuvant
Method: See, for example, […], “Rat Adjuvant Arthritis A Model of Chronic Inflammation,” Pharmocoloigal Methods in the Control of Inflammation, 363-380 (1989) and references cited therein In this assay, Male Lewis rats weighing between 180-220 g were lightly anesthetized with an ip injection of 30 mg/kg of sodium pentobarbital (50 mg/mL). Desiccated Mycobacterium butyrium (Difco, 20 mg/mL) suspended in mineral oil was injected (50 μL) at both sides of the base of the tail under the skin A line was tattooed on both rear paws at 5 mm above the angle of the ankle The paw volumes, under the line, were measured by volume displacement using a plethysmometer (Ugo Basile) at the day of adjuvant injection (day 0) and on day 14 On day 14, animals with paw volumes equal to the mean of paw volumes ±SD were randomized into treatment groups. Rats which fell outside ±1 SD were not used in the experiment.

Structure (SMILES)	inhibition of COX-1 [1]	inhibition of COX-2 [2]	paw volume as compared to vehicle controls [3]
CC(=O)Oc1c(C(C)(C)C)cc(/C=[N+](\[O-])C(C)(C)C)cc1C(C)(C)C [Example 1, α-(4-Acetoxy-3,5-di-tert-butylphenyl)-N-tert-butylnitrone]	did not significantly affect	did not significantly affect	–
COc1ccc2c(c1)c(CC(=O)O)c(C)n2C(=O)c1ccc(Cl)cc1 [indomethacin]	–	–	significantly reduced
